In patent US20180311174A1, “NANOPARTICLES COMPRISING A METAL CORE SURROUNDED BY A MONOLAYER FOR LYMPH NODE TARGETING” (Massachusetts Institute of Technology, priority 2015, published 2018):
Values belong to the compound of their own block, whether it stands above or below them.

Experiments:
PD-1 = test: cell-based or functional assay
[1] = Hydrophobic drug loading capacity of NPs (UV-vis/HPLC); format: physicochemical
Excerpt: In this drug loading strategy, DGKi or other hydrophobic drugs in organic solvent are mixed with an aqueous suspension of amph-NPs and dialyzed to remove the organic solvent, leading to partitioning of the drug into the hydrophobic pockets of the amph-NP ligand shell. This approach allowed one to load drugs that are nearly insoluble in aqueous solutions to high degrees of “solubility” via incorporation into MUS or MUSOT amph-NPs.
More detailed procedures to prepare small molecules-loaded NPs are as follows: Hydrophobic small molecules are dissolved in pure ethanol, and mixed with NPs in a dialysis tube against water. Dialysis tubes containing 100-500 Da molecular weight cut off allows ethanol to permeate while retains most small molecules. […] Loaded drugs were then quantified via absorbance using UV-vis spectrometer.
To test immunomodulatory drug loading capacity, small-molecule drug N-acetylcysteine (NAC) was loaded directly onto the gold core via sulfur-gold covalent bonding. […] The drug loading efficiency was determined by HPLC and UV-vis.
In this drug loading strategy, DGKi or other hydrophobic drugs in organic solvent are mixed with an aqueous suspension of amph-NPs and dialyzed to remove the organic solvent, leading to partitioning of the drug into the hydrophobic pockets of the amph-NP ligand shell. […] Loaded drugs were then quantified via absorbance using UV-vis spectrometer. […]

DCs, B and T cells = test: Immune cell activation in lymph nodes after s.c. R848; format: in vivo, C57BL/6 mice; conditions: doses above 5 μg, 24 h post injection
Protocol: From there they disperse into the body and drain into the lymph system where they encounter cells sensitive to their adjuvants. Serum inflammatory cytokines were tested one hour post injection given the short half-life of small molecules.
R848 (Resiquimod, a TLR7/8 agonist) was loaded into amph-NPs, and administered subcutaneously at the tail base. Serum was collected 1 hour post injection to evaluate systemic toxicity. Cells in LNs were isolated 24 h post injection to analyze immune cell activation.
Small molecules like R848 diffuse quickly into blood vessels, which may lead to severe systemic adverse effect. An experiment was designed to determine if by using lymph node targeted NPs, systemic adverse effects could be reduced while activation of local lymphocytes remains effective. Systemic toxicity was compared by measuring TNF, IL-6, IL-10, and MCP-1, and measuring activation of lymphatic cells.

Cytotoxic T cells = test: T cell proliferation under PD-L1 induced suppression; format: cell-based; conditions: αCD3/CD28 activated
Protocol: Cytotoxic T cells were incubated with αCD3/CD28 activating antibody and either control IgG, or with PD-L1 IgG (PD-1 agonist antibody) to induce T cell suppression, and further treated with vehicle, DGK inhibitor alone, DGK inhibitor loaded amph-NP, or amph-NP alone.

Compound: PD-L1 IgG (PD-1 agonist antibody)
% proliferating cells (cytotoxic T cells with anti-CD3/CD28, vehicle / no treatment; control IgG gave 71.3%) (PD-1): 0.98%

loading in amph-NPs [1]: loads well
Compound: CN[C@@H](C)C(=O)N[C@H](C(=O)N1CCC[C@H]1c1nc(C(=O)c2ccc(F)cc2)cs1)C1CCCCC1 [LCL161]

Compound: CCOCc1nc2c(N)nc3ccccc3c2n1CC(C)(C)O [R848, Resiquimod]
activation of immune cells in LNs (DCs, B and T cells): activated DCs, B and T cells

Compound: Cc1nc2sccn2c(=O)c1CCN1CCC(=C(c2ccccc2)c2ccc(F)cc2)CC1 [diacyl kinase inhibitor]
% proliferating cells (Cytotoxic T cells; PD-L1 IgG (suppressed)): 2.71%
% proliferating cells (Cytotoxic T cells; control IgG): 89.9%
